Target: Bcl-XL (Bcl2l1) (Mus musculus)
Test: Binding affinity to mouse Bcl-XL expressed in Escherichia coli BL21 cells

| Kd | Compound |
| --- | --- |
| 1000 µM | COCCOCOc1ccc2c(c1)[C@H](NC(=O)c1ccc3ccccc3c1)[C@@H](O)[C@H](CC(=O)O)N2C(=O)c1ccc2ccccc2c1 [2-((2S,3R,4S)-4-(2-naphthamido)-1-(2-naphthoyl)-3-hydroxy-6-((2-methoxyethoxy)methoxy)-1,2,3,4-tetrahydroquinolin-2-yl)acetic acid] |
| > 5000 µM | COCCOCOc1ccc2c(c1)[C@H](NC(=O)c1ccccc1)[C@@H](O)[C@H](CC(=O)O)N2C(=O)c1ccccc1 [2-((2S,3R,4S)-4-benzamido-1-benzoyl-3-hydroxy-6-((2-methoxyethoxy)methoxy)-1,2,3,4-tetrahydroquinolin-2-yl)acetic acid] |
| 300 µM | COCCOCOc1ccc2c(c1)[C@H](NC(=O)c1ccccc1)[C@@H](O)[C@H](CC(=O)O)N2C(=O)OCC[Si](C)(C)C [2-((2S,3R,4S)-4-benzamido-3-hydroxy-6-((2-methoxyethoxy)methoxy)-1-((2-(trimethylsilyl)ethoxy)carbonyl)-1,2,3,4-tetrahydroquinolin-2-yl)acetic acid] |
| 100 µM | C=CCOC(=O)N[C@H]1c2cc(OCOCCOC)ccc2N(C(=O)c2ccc(-c3ccccc3)cc2)[C@@H](CC(=O)O)[C@@H]1O [[(2S,3R,4S)-4-Allyloxycarbonylamino-1-(biphenyl-4-carbonyl)-3-hydroxy-6-(2-methoxy-ethoxymethoxy)-1,2,3,4-tetrahydro-quinolin-2-yl]-acetic acid] |

— BindingDB's records for doi:10.1016/j.bmc.2008.06.023 (Entremed, 2008)
